# Biological target: Inositol-trisphosphate 3-kinase A (Homo sapiens, UniProt P23677)
# Experiment: Inhibition Assay
# Conditions: pH 8; 37 °C
# Description: IP3K reactions were carried out in a 100ul solution that contained Tris-Cl, EGTA, ATP, DTT, 2,3-diphosphoglycerate, D-l(1,4,5)P3, [3H]-l(1,4,5)P3 and various amounts of synthetic purine analogues.
# Sequence of Inositol-trisphosphate 3-kinase A (P23677 whole entry): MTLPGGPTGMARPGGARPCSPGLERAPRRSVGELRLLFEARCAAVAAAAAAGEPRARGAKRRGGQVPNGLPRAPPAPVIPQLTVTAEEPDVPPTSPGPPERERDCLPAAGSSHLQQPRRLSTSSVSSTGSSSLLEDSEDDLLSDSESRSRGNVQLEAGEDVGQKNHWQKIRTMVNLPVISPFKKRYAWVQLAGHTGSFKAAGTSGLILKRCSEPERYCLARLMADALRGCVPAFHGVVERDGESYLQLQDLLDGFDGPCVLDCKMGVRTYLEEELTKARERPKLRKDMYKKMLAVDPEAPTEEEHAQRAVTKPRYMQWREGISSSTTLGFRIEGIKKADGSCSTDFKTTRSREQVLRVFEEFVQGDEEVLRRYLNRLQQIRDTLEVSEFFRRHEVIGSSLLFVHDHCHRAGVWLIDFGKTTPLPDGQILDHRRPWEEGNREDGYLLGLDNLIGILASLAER
Compound,IC50 [µM],Ki [µM]
"O=[N+]([O-])c1ccc(CNc2nc(NCc3ccc(Cl)cc3)nc3nc[nH]c23)cc1 [Purine, 24]",12.7,
"O=[N+]([O-])c1ccc(CNc2nc(NCc3cccc(C(F)(F)F)c3)nc3[nH]cnc23)cc1 [Purine, 5]",10.2,4.3
"O=[N+]([O-])c1ccc(CNc2nc(NCc3ccc(C(F)(F)F)cc3)nc3nc[nH]c23)cc1 [Purine, 18]",67.6,
"NCc1cccc(CNc2nc(NCc3ccccc3)c3[nH]cnc3n2)c1 [Purine, 14]",> 200,
"Clc1cccc(CNc2nc(NCc3ccccc3)c3[nH]cnc3n2)c1 [Purine, 6]",150,
"O=[N+]([O-])c1ccc(CNc2nc(NCc3ccccc3F)nc3nc[nH]c23)cc1 [Purine, 19]",23.4,
"O=[N+]([O-])c1cccc(CNc2nc(NCc3ccccc3Cl)nc3nc[nH]c23)c1 [Purine, 16]",> 200,
"FC(F)(F)c1cccc(CNc2nc(NCc3ccccc3)c3nc[nH]c3n2)c1 [Purine, 3]",13.7,
"FC(F)(F)c1cccc(CNc2nc(NCc3ccccc3)c3ncn(C4CCCCO4)c3n2)c1 (stereo not given) [Purine, 4]",43.4,
"Nc1ccc(CNc2nc(NCc3cccc(C(F)(F)F)c3)nc3nc[nH]c23)cc1 [Purine, 2]",13.5,
"O=[N+]([O-])c1ccc(CNc2nc(NCc3ccc(F)cc3)nc3nc[nH]c23)cc1 [Purine, 21]",28.8,
"CC(C)n1cnc2c(Nc3cccc(Cl)c3)nc(NCc3cccc(C(F)(F)F)c3)nc21 [Purine, 12]",> 200,
"COc1ccc(CNc2nc(NCc3cccc(C(F)(F)F)c3)nc3c2ncn3C(C)C)cc1 [Purine, 11]",> 200,
"Clc1ccc(CNc2nc(NCc3ccccc3)c3[nH]cnc3n2)cc1 [Purine, 7]",138,
"c1ccc(CNc2nc(NCc3ccc4ccccc4c3)nc3nc[nH]c23)cc1 [Purine, 13]",63,
"O=[N+]([O-])c1ccc(CNc2nc(NCc3ccccc3C(F)(F)F)nc3nc[nH]c23)cc1 [Purine, 17]",18.2,

# The remaining molecules from weak to strong by IC50, led by results:
IC50 [µM],Ki [µM],Compound
220,,"Fc1ccc(CNc2nc(NCc3ccccc3)c3[nH]cnc3n2)cc1 [Purine, 9]"
150,,"Clc1ccc(CNc2nc(Nc3ccccc3)c3[nH]cnc3n2)cc1 [Purine, 10]"
117,,"CC(Nc1nc(NCc2ccccc2)c2[nH]cnc2n1)c1ccccc1 (stereo not given) [Purine, 15]"
102,,"FC(F)(F)c1ccc(CNc2nc(NCc3ccc(C(F)(F)F)cc3)c3[nH]cnc3n2)cc1 [Purine, 8]"
57.1,,"Cn1cnc2c(NCc3ccc(N)cc3)nc(NCc3cccc(C(F)(F)F)c3)nc21 [Purine, 1]"
49,,"O=[N+]([O-])c1ccc(CNc2nc(NCc3cccc(F)c3)nc3nc[nH]c23)cc1 [Purine, 20]"
28,,"O=[N+]([O-])c1ccc(CNc2nc(NCc3ccccc3Cl)nc3nc[nH]c23)cc1 [Purine, 22]"
20,,"O=[N+]([O-])c1ccc(CNc2nc(NCc3cccc(Cl)c3)nc3nc[nH]c23)cc1 [Purine, 23]"

# From BindingDB's records for doi:10.1002/1439-7633(20020902)3:9 (New York University, 2002)
